In patent US20150044211A1, “COMBINATION OF A 6-OXO-1,6-DIHYDRO-PYRIDAZINE DERIVATIVE HAVING ANTI-CANCER ACTIVITY WITH OTHER ANTI-TUMOR COMPOUNDS” (MERCK PATENT GMBH, priority 2012, published 2015):

Columns and labels:
[1] = tested on: human NCI-H441 NSCLC tumor cells; conditions: female CD-1 nude mice; for T/C: end of treatment (18 days), compound 100 mg/kg orally 5 days on 2 days off, erlotinib 40 then 30 mg/kg (MTD)
Description: (§1) Method: Female CD-1 nude mice (6-8 week old) where subcutaneously injected with human NCI-H441 NSCLC tumor cells and were divided into 4 groups (ten animals in one group) after the tumors were established. Respective groups were administered orally with the 3-(1-{3-[5-(1-Methyl-piperidin-4-ylmethoxy)-pyrimidin-2-yl]-benzyl}-6-oxo-1,6-dihydro-pyridazin-3-yl)-benzonitrile hydrochloride hydrate (100 mg/kg—5 days on and 2 days off) or with erlotinib (initial 40 mg/kg followed by 30 mg/kg (MTD)-4 days on and 4 days off followed by 3 days on and 4 days off) alone or both drugs simultaneously for 18 days. […] Statistical calculation has been done at day 7, the day with most body weight difference in erlotinib monotherapy versus combination groups.

[2] = Body weight change / tolerability in the NCI-H441 xenograft study; conditions: Day 7
Description: as §1

[3] = tested on: human H1975 NSCLC tumor cells; experiment: H1975 NSCLC xenograft, combination with cetuximab; assay type: in vivo; conditions: single agent 100 mg/kg orally daily for three weeks; CD-1 nude mice
Description: Method: Female CD-1 nude mice (6-8 week old) where subcutaneously injected with human H1975 NSCLC tumor cells and were divided into 4 groups (nine animals in one group) after the tumors were established.

[4] = tested on: luciferase-transfected human EBC-1 NSCLC tumor cells; experiment: EBC-1 NSCLC xenograft (luciferase-transfected), combination with B20.4-1; assay type: in vivo
Description: Formation of lung metastases was reduced and could be only detected at the end of treatment in 3/10 mice. B20.4-1 was active with a T/C of 19% and lung metastases in 4/10 mice could be detected at the end of treatment. […] Detectable formation of lung metastases could be suppressed in 10/10 mice.

SMILES | T/C [1] | Dunn's Multiple Comparison Test, Difference in rank sum (body weight change %) ([2]; versus Vehicle) | Dunn's Multiple Comparison Test, Significant? P < 0.05? (body weight change %) ([2]; versus Vehicle) | Dunn's Multiple Comparison Test, Summary (body weight change %) ([2]; versus Vehicle) | anti-tumor activity (in words) [3] | tumor growth delay (TGD) ([1]; compound 100 mg/kg, erlotinib 40 then 30 mg/kg, 18 days) | partial regression ([4]; SCID hairless mice, 20 days of treatment) | lung metastases detected at the end of treatment ([4]; SCID hairless mice, 20 days, ex vivo lung images) | T/C ([4]; end of treatment (20 days), female SCID hairless mice, compound 10 mg/kg orally daily, B20.4-1 20 mg/kg intraperitoneally biweekly) | Dunn's Multiple Comparison Test, Difference in rank sum (body weight change %) ([2]; versus erlotinib 30 mg/kg) | Dunn's Multiple Comparison Test, Significant? P < 0.05? (body weight change %) ([2]; versus erlotinib 30 mg/kg) | Dunn's Multiple Comparison Test, Summary (body weight change %) ([2]; versus erlotinib 30 mg/kg)
C#Cc1cccc(Nc2ncnc3cc(OCCOC)c(OCCOC)cc23)c1 [erlotinib, reference compound] | 82% | 6.333 | no | ns | – | – | – | – | – | – | – | –
CN1CCC(COc2cnc(-c3cccc(Cn4nc(-c5cccc(C#N)c5)ccc4=O)c3)nc2)CC1.Cl.O [“A”, 3-(1-{3-[5-(1-Methyl-piperidin-4-ylmethoxy)-pyrimidin-2-yl]-benzyl}-6-oxo-1,6-dihydro-pyridazin-3-yl)-benzonitrile hydrochloride hydrate] | 20% | 2.000 | no | ns | inactive | 16 days | 1/10 | 3/10 | −20% | −4.333 | no | ns
